Literature values in patent EP1897537A1, “Composition comprising an angiotensin II receptor antagonist” (Novartis AG, priority 2006, dated 2008).

Assays:
[1] = immediate release tablet formulation (Diovan ®)
[2] = most acidic pKa; fumaric acid values at 25 °C

bioavailability [1]	pKa1 [2]	Compound
around 30%		CCCCC(=O)N(Cc1ccc(-c2ccccc2-c2nnn[nH]2)cc1)[C@H](C(=O)O)C(C)C [Valsartan, (S)-N-(1-carboxy-2-methylprop-1-yl)-N-pentanoyl-N-[2'-(1H-tetrazol-5-yl)biphenyl-4-ylmethyl]amine]
	about 4.2	O=C(O)CCC(=O)O [succinic acid]
